Results reported in patent publication US11339130B1 (Blade Therapeutics, Inc., priority 2016, dated 2022).
Where two headings read alike, the source gives them in different places.

Legend:
[1] = system: Calpain activity in SH-SY5Y cells; assay: SH-SY5Y + AMC fluorescence assay (Suc-LLVY-AMC substrate); type: cell-based; conditions: read-out: SH-SY5Y + AMC IC50
Human Calpain 9/NS1 = biological target: T1, Human Calpain 9/NS1 (Homo sapiens, UniProt O14815); assay: Calpain inhibition continuous fluorescence (FRET) assay, Human Calpain 9/NS1; type: biochemical; conditions: read-out: Human Calpain 9/NS1 IC50
T1 sequence (O14815 1-690): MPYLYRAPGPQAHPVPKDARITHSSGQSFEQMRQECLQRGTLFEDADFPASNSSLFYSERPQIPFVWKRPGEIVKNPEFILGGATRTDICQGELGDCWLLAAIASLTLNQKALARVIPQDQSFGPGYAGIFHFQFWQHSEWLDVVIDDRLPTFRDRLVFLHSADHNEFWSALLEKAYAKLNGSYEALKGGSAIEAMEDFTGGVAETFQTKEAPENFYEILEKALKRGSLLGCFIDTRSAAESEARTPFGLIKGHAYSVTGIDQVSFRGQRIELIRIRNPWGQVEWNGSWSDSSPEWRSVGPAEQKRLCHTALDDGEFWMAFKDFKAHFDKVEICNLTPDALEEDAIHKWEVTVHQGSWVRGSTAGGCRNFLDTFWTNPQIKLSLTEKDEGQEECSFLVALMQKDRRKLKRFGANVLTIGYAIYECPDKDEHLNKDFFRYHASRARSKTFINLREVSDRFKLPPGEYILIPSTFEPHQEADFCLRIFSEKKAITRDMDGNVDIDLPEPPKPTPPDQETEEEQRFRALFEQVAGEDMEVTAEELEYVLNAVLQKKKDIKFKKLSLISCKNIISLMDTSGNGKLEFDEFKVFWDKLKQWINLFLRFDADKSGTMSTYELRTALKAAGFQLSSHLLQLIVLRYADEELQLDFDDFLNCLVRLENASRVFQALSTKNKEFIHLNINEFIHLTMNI
T1 sequence (P04632 1-268 partner): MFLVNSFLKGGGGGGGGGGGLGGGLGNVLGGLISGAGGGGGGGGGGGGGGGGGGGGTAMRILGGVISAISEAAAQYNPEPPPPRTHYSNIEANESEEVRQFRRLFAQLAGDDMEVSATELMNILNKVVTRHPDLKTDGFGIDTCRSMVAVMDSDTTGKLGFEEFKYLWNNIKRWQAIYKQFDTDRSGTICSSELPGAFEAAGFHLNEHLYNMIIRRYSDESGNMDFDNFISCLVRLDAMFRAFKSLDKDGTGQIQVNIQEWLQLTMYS
Procedure, shortened: (§1)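 Inhibitors were preincubated with calpain in 50 mM Tris pH 7.5, 100 mM NaCl, 1 mM DTT at 25C. Reactions were started with 5-FAM/QXL 520 FRET peptide substrate plus CaCl2 and read at 490/520 nm for 10 min. IC50s came from 4-parameter fits of slope rates (1-5 min).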

Human Calpain 2/NS1 = biological target: T2, Human Calpain 2/NS1 (Homo sapiens, UniProt P17655); assay: Calpain inhibition continuous fluorescence (FRET) assay, Human Calpain 2/NS1; type: biochemical; conditions: read-out: Human Calpain 2/NS1 IC50
T2 sequence (P17655 1-700): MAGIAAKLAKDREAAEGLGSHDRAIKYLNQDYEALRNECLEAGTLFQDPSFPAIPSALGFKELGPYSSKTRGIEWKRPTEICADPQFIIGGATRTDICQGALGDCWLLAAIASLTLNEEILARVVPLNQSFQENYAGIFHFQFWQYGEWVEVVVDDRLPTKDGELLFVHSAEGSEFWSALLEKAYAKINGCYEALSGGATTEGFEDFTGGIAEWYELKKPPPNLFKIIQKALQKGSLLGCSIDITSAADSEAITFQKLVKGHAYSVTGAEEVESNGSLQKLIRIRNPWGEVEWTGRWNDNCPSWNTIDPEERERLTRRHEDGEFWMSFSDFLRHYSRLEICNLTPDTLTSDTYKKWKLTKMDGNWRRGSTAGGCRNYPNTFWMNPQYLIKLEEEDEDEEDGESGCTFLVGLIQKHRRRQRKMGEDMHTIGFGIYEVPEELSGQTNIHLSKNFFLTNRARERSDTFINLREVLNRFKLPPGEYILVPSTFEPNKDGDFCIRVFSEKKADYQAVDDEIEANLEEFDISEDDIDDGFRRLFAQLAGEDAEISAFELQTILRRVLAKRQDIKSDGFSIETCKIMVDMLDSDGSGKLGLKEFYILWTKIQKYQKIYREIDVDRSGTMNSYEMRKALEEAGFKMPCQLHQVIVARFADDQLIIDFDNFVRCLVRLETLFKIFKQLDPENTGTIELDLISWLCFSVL
T2 sequence (P04632 1-268 partner): T1 sequence (P04632 1-268 partner)
Procedure, shortened: as §1

[2] = system: Calpain activity in SH-SY5Y cells (SBDP-150); assay: SH-SY5Y Spectrin western blot assay (SBDP-150 breakdown product, A23187-induced); type: cell-based; conditions: Homo sapiens, SH-SY5Y cells, read-out: SH-SY5Y Spectrin IC50
Human Calpain 1/NS1 = biological target: T3, Human Calpain 1/NS1 (Homo sapiens, UniProt P07384); assay: Calpain inhibition continuous fluorescence (FRET) assay, Human Calpain 1/NS1; type: biochemical; conditions: read-out: Human Calpain 1/NS1 IC50
T3 sequence (P07384 1-714): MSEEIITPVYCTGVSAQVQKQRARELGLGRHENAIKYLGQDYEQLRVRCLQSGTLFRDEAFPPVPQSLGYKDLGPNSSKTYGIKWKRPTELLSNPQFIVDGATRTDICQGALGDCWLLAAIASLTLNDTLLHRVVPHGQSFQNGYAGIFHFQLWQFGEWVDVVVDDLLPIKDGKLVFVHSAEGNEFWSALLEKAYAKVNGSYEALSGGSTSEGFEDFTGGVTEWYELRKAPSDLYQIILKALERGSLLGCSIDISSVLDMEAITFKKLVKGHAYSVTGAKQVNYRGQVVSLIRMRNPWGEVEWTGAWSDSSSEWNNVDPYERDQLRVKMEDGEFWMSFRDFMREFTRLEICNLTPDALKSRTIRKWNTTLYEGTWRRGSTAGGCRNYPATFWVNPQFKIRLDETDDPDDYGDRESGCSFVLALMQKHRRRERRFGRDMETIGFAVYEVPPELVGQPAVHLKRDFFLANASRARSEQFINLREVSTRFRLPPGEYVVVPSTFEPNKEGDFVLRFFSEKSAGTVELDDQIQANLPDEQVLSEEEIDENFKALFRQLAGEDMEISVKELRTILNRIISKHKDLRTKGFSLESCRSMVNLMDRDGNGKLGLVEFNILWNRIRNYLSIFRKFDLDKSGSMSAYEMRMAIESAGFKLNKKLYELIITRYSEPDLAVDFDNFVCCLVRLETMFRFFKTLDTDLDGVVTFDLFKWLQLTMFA
T3 sequence (P04632 1-268 partner): T1 sequence (P04632 1-268 partner)
Procedure, shortened: as §1

[3] = A23187-induced SBDP-150, western blot
[4] = Column D, A23187-induced SBDP-150

Structure (SMILES) | IC50 [1] | IC50 (Human Calpain 9/NS1) | IC50 (Human Calpain 2/NS1) | IC50 [2, 3] | IC50 (Human Calpain 1/NS1) | IC50 ([1]; Column E) | IC50 (Human Calpain 9/NS1; Column C) | IC50 (Human Calpain 2/NS1; Column B) | IC50 [2, 4] | IC50 (Human Calpain 1/NS1; Column A)
Cc1noc(-c2ccccc2)c1C(=O)N[C@@H](Cc1ccc(O)cc1)C(=O)C(N)=O [Compound 492, (S)—N-(4-amino-1-(4-hydroxyphenyl)-3,4-dioxobutan-2-yl)-3-methyl-5-phenylisoxazole-4-carboxamide] | > 25 µM | < 3 µM | < 3 µM | 10 to 25 µM | < 3 µM | – | – | – | – | –
NC(=O)C(=O)[C@H](Cc1ccccc1)NC(=O)c1c(-c2ccccc2)noc1C(F)(F)F [Compound 278, (S)—N-(4-amino-3,4-dioxo-1-phenylbutan-2-yl)-3-phenyl-5-(trifluoromethyl)isoxazole-4-carboxamide] | – | – | – | – | – | > 25 µM | < 3 µM | < 3 µM | < 10 µM | < 3 µM
NC(=O)C(=O)C(Cc1ccccc1)NC(=O)c1nc(C2CC2)oc1-c1ccccc1 (stereo not shown) [Compound 394, N-(4-amino-3,4-dioxo-1-phenylbutan-2-yl)-2-cyclopropyl-5-phenyloxazole-4-carboxamide] | > 25 µM | < 3 µM | < 3 µM | > 25 µM | < 3 µM | – | – | – | – | –
C#Cc1nccc(-n2nc(C)cc2C(=O)N[C@@H](Cc2ccccc2)C(=O)CF)n1 [Compound 433, (S)-1-(2-ethynylpyrimidin-4-yl)-N-(4-fluoro-3-oxo-1-phenylbutan-2-yl)-3-methyl-1H-pyrazole-5-carboxamide] | > 25 µM | > 10 µM | 3 to 10 µM | 10 to 25 µM | 3 to 10 µM | – | – | – | – | –
NC(=O)C(=O)[C@H](Cc1ccccc1)NC(=O)c1cncn1-c1ccc(-c2ncco2)cn1 [Compound 112, (S)—N-(4-amino-3,4-dioxo-1-phenylbutan-2-yl)-1-(5-(oxazol-2-yl)pyridin-2-yl)-1H-imidazole-5-carboxamide] | – | – | – | – | – | > 25 µM | < 3 µM | < 3 µM | < 10 µM | < 3 µM
NC(=O)C(=O)C(Cc1ccccc1)NC(=O)c1cn(C(F)F)nc1-c1ccccn1 (stereo not shown) [Compound 550, N-(4-amino-3,4-dioxo-1-phenylbutan-2-yl)-1-(difluoromethyl)-3-(pyridin-2-yl)-1H-pyrazole-4-carboxamide] | 10 to 25 µM | < 3 µM | < 3 µM | > 25 µM | < 3 µM | – | – | – | – | –
Cn1cc(C(=O)N[C@@H](Cc2ccc(F)cc2)C(=O)C(N)=O)c(-c2ccccc2)n1 [Compound 168, (S)—N-(4-amino-1-(4-fluorophenyl)-3,4-dioxobutan-2-yl)-1-methyl-3-phenyl-1H-pyrazole-4-carboxamide] | – | – | – | – | – | < 10 µM | < 3 µM | < 3 µM | 10 to 25 µM | < 3 µM

Further lines, results first:

IC50 [1] | IC50 (Human Calpain 9/NS1) | IC50 (Human Calpain 2/NS1) | IC50 [2, 3] | IC50 (Human Calpain 1/NS1) | IC50 ([1]; Column E) | IC50 (Human Calpain 9/NS1; Column C) | IC50 (Human Calpain 2/NS1; Column B) | IC50 [2, 4] | IC50 (Human Calpain 1/NS1; Column A) | Structure (SMILES)
< 10 µM | < 3 µM | < 3 µM | > 25 µM | < 3 µM | – | – | – | – | – | Cn1cc(C(=O)NC(Cc2ccccc2)C(=O)C(N)=O)c(-c2ccccc2Cl)n1 (stereo not shown) [Compound 604, N-(4-amino-3,4-dioxo-1-phenylbutan-2-yl)-3-(2-chlorophenyl)-1-methyl-1H-pyrazole-4-carboxamide]
– | – | – | – | – | < 10 µM | < 3 µM | < 3 µM | < 10 µM | < 3 µM | Cc1cc(C(=O)N[C@@H](Cc2ccccc2)C(=O)C(N)=O)n(-c2cccc(CNC(=O)Cc3ccccc3)c2)n1 [Compound 144, (S)—N-(4-amino-3,4-dioxo-1-phenylbutan-2-yl)-3-methyl-1-(3-((2-phenylacetamido)methyl)phenyl)-1H-pyrazole-5-carboxamide]
– | – | – | – | – | > 25 µM | < 3 µM | < 3 µM | 10 to 25 µM | < 3 µM | Cn1cc(C(=O)N[C@@H](Cc2ccccc2)C(=O)C(N)=O)c(-c2cccc(Cl)c2)n1 [Compound 187, (S)—N-(4-amino-3,4-dioxo-1-phenylbutan-2-yl)-3-(3-chlorophenyl)-1-methyl-1H-pyrazole-4-carboxamide]
10 to 25 µM | < 3 µM | < 3 µM | 10 to 25 µM | < 3 µM | – | – | – | – | – | CCn1cc(C(=O)NC(Cc2ccccc2)C(=O)C(N)=O)c(-c2ccc(F)cc2)n1 (stereo not shown) [Compound 471, N-(4-amino-3,4-dioxo-1-phenylbutan-2-yl)-1-ethyl-3-(4-fluorophenyl)-1H-pyrazole-4-carboxamide]
> 25 µM | 3 to 10 µM | < 3 µM | > 25 µM | < 3 µM | – | – | – | – | – | Cn1cc(C(=O)NC(Cc2ccccc2)C(=O)C(N)=O)c(-c2ccc3ccccc3n2)n1 (stereo not shown) [Compound 587, N-(4-amino-3,4-dioxo-1-phenylbutan-2-yl)-1-methyl-3-(quinolin-2-yl)-1H-pyrazole-4-carboxamide]
< 10 µM | < 3 µM | < 3 µM | > 25 µM | < 3 µM | – | – | – | – | – | Cn1cc(C(=O)N[C@@H](Cc2ccccc2)C(=O)C(=O)NCCC(N)=O)c(-c2ccccc2)n1 [Compound 338, (S)—N-(4-((3-amino-3-oxopropyl)amino)-3,4-dioxo-1-phenylbutan-2-yl)-1-methyl-3-phenyl-1H-pyrazole-4-carboxamide]
– | – | – | – | – | > 25 µM | < 3 µM | < 3 µM | < 10 µM | < 3 µM | Cc1cc(C(=O)N[C@@H](Cc2ccccc2)C(=O)C(N)=O)n(-c2ncc(-c3ccccc3)s2)n1 [Compound 113, (S)—N-(4-amino-3,4-dioxo-1-phenylbutan-2-yl)-3-methyl-1-(5-phenylthiazol-2-yl)-1H-pyrazole-5-carboxamide]
